Data: patent US20260355192A1, “PROPHYLACTIC OR THERAPEUTIC AGENT FOR PERIOSTIN-MEDIATED DISEASE AND PRURITUS ASSOCIATED THEREWITH” (SAGA UNIVERSITY, priority 2022, published 2026)

Tests used:
[1] = test system: scratching behaviors in FADS mice; assay: Scratching behaviors in FADS mice upon single systemic administration of CP4715; format: in vivo, mouse (FADS, Nestin-cre/Ikk2ff); details: 53.7 μmol/kg i.p., FIG. 2
Source text: Nestin-cre transgenic mice were crossed with IKK2^ff mice to prepare Nestin-cre/Ikk2^ff mice specifically lacking IKK2 in their facial skin fibroblasts (Nunomura S, et al. J Invest Dermatol. 139:1274-1283, 2019). These mice inevitably develop atopic dermatitis-like rash limited to the face and intense itchy symptoms, and were therefore designated as Facial Atopic Dermatitis with Scratching (FADS) mice. […] For evaluation of the prophylactic or therapeutic agent of the present invention, FADS mice at 3 to 4 weeks of age or older were used because of showing spontaneous scratching behaviors. […]
FADS mice were acclimated for 20 minutes to the environment of a recording cage, and then recorded with a video camera. The recorded videos were replayed, and scratching behaviors were counted assuming that hind paw scratching to the face and the subsequent movement of toe licking or paw lowering to the ground were regarded as one cycle of scratching behavior.
Prior to CP4715 administration, FADS mice were recorded for 60 minutes and then allowed to rest for 30 minutes. […] Mice administered with 0.3 mL of PBS containing an equal amount of the diluent as calculated based on the body weight were used as a control group.
The mice were recorded for 80 minutes immediately after drug administration. […]

[2] = test system: neurons in the posterior horn surface of the spinal cord; assay: In vivo extracellular recording from the posterior horn surface of the spinal cord in FADS mice (spontaneous firing); parameters: species or system mouse (FADS); details: 53.7 μmol/kg i.p.; FIG. 3
Protocol: In Vivo Extracellular Recording from the Posterior Horn Surface of the Spinal Cord in FADS Mice
FADS mice were administered intraperitoneally with 1.5 g/kg of urethane and anesthetized, followed by dorsal lumbar laminectomy. The first to sixth lumbar vertebrae were exposed, and each mouse was set on a stereotaxic apparatus. Under a microscope, the dural, arachnoidal and pial membranes were removed, and the spinal cord surface was warmed at 36±1 °C, followed by perfusion at 15 to 20 mL/min with an artificial cerebrospinal fluid (composition: NaCl (117 mM), KCl (3.6 mM), CaCl2) (2.5 mM), MgCl2 (1.2 mM), NaH2PO4 (1.2 mM), glucose (11 mM), NaHCO3 (25 mM)) saturated with 95% 02 to 5% CO2. Into the exposed spinal cord, a tungsten electrode (tip diameter: […], tip impedance: 9 to 12 MΩ) was inserted (latero-medial), and records were obtained from neurons in the posterior horn surface of the spinal cord.
CP4715 was dissolved at 89.5 mM in a diluent (physiological saline containing 50% DMSO and 89.5 mM hydrochloric acid), from which an amount corresponding to 53.7 μmol/kg per mouse was then taken and diluted with 0.3 mL of physiological saline, and then administered intraperitoneally (i.p.). 0.3 mL of physiological saline containing an equal amount of the diluent as calculated based on the body weight was administered as a control. When recorded from the spinal cord posterior horn of the FADS mice, neurons with spontaneous firing could be recorded. When the above control solution was first administered intraperitoneally, there was little change in the frequency of spontaneous firing during 30 minutes after administration.

COc1cc(C(=O)NC[C@H](NS(=O)(=O)c2ccccc2)C(=O)O)ccc1N1CCC(NC2=NCCCN2)CC1 [CP4715, (S)-3-(3-methoxy-4-(4-((1,4,5,6-tetrahydropyrimidin-2-yl)amino)piperidin-1-yl)benzamido)-2-(phenylsulfonamido)propanoic acid]
time after administration until which the suppressive effect on scratching was sustained [1]: 60 min
scratching behaviors (number of scratchings per minute) ([1]; at 20 minutes or later after administration, Mann-Whitney's U-test vs diluent control): significantly suppressed (P<0.05)
time after administration at which firing returned to the initial frequency [2]: 60 min
time after administration at which the frequency of firing started to decrease [2]: 20 min
time after administration at which the frequency of firing was most strongly suppressed [2]: 40 min
